Measured values as given in paper PMC9107566, “Metabolic engineering of Escherichia coli for efficient degradation of 4-fluorophenol” (AMB Express, 2022).

Biological target: T1, FpdA2 (Arthrobacter sp. IF1, UniProt D1MYT1)
T1 construct: co-expressed with flavin reductase FpdB, FpdC and FpdD; not purified
T1 sequence (D1MYT1 1-535): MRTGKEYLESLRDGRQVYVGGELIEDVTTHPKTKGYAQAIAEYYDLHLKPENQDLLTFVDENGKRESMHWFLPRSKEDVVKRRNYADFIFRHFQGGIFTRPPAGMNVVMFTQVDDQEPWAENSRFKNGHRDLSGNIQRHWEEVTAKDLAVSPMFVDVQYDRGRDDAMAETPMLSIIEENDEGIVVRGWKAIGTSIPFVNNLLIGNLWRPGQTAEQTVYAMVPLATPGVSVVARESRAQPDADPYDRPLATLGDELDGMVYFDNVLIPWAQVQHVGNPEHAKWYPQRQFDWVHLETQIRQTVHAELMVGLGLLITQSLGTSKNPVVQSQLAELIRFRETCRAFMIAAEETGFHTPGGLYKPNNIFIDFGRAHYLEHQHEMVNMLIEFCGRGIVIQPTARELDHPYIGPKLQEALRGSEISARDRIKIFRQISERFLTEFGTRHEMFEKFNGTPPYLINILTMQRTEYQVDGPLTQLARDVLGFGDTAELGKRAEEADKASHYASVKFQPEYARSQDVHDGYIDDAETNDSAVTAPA
Assay: whole-cell degradation by BL-fpd, HPLC of substrate
Type: cell-based
Conditions: 2 mM substrate, 10 uM FAD added, 37 C, 3 h; induced cells co-expressing FpdB, FpdC, FpdD; empty-vector strain BL-control as control

## Oc1ccc(Br)cc1 [4-bromophenol]
  whole-cell degradation by BL-fpd, HPLC of substrate: FpdA2 showed the highest activity towards 4-bromophenol among the substrates tested
